Measurements taken from ChEMBL document CHEMBL4004803, “Syntheses and antibacterial activity of soluble 9-bromo substituted indolizinoquinoline-5,12-dione derivatives” (Eur J Med Chem, 2017).

Tests used:
Format in all cases: functional
[1] = system: Staphylococcus aureus; experiment: Antibacterial activity against methicillin-resistant Staphylococcus aureus 102849 clinical isolate after 20 to 24 hrs by two-fold microdilution method
[2] = system: Staphylococcus aureus; experiment: Antibacterial activity against methicillin-resistant Staphylococcus aureus 103054 clinical isolate after 20 to 24 hrs by two-fold microdilution method
[3] = system: Staphylococcus aureus; experiment: Antibacterial activity against methicillin-resistant Staphylococcus aureus 111423 clinical isolate after 20 to 24 hrs by two-fold microdilution method
[4] = system: Staphylococcus aureus; experiment: Antibacterial activity against methicillin-resistant Staphylococcus aureus 10281-2 clinical isolate after 20 to 24 hrs by two-fold microdilution method
[5] = system: Staphylococcus aureus; experiment: Antibacterial activity against methicillin-resistant Staphylococcus aureus 131215 clinical isolate after 20 to 24 hrs by two-fold microdilution method
[6] = system: Staphylococcus aureus; experiment: Antibacterial activity against methicillin-resistant Staphylococcus aureus 111625 clinical isolate after 20 to 24 hrs by two-fold microdilution method
[7] = system: Streptococcus pneumoniae; experiment: Antibacterial activity against Streptococcus pneumoniae ATCC 6305 after 20 to 24 hrs by two-fold microdilution method
[8] = system: Staphylococcus aureus; experiment: Antibacterial activity against methicillin-resistant Staphylococcus aureus 822030 clinical isolate after 20 to 24 hrs by two-fold microdilution method
[9] = system: Enterococcus faecalis; experiment: Antibacterial activity against Enterococcus faecalis ATCC 29212 after 20 to 24 hrs by two-fold microdilution method
[10] = system: Staphylococcus haemolyticus; experiment: Antibacterial activity against Staphylococcus haemolyticus CICC 10373 after 20 to 24 hrs by two-fold microdilution method
[11] = system: Staphylococcus aureus; experiment: Antibacterial activity against methicillin-resistant Staphylococcus aureus ATCC 43300 after 20 to 24 hrs by two-fold microdilution method
[12] = system: Staphylococcus aureus; experiment: Antibacterial activity against methicillin-resistant Staphylococcus aureus 19950 clinical isolate after 20 to 24 hrs by two-fold microdilution method
[13] = system: Staphylococcus aureus; experiment: Antibacterial activity against methicillin-resistant Staphylococcus aureus 1012029 clinical isolate after 20 to 24 hrs by two-fold microdilution method
[14] = system: Staphylococcus aureus; experiment: Antibacterial activity against methicillin-resistant Staphylococcus aureus 1023043 clinical isolate after 20 to 24 hrs by two-fold microdilution method
[15] = system: Staphylococcus aureus; experiment: Antibacterial activity against methicillin-resistant Staphylococcus aureus 12308 clinical isolate after 20 to 24 hrs by two-fold microdilution method
[16] = system: Staphylococcus aureus; experiment: Antibacterial activity against methicillin-resistant Staphylococcus aureus 1108204 clinical isolate after 20 to 24 hrs by two-fold microdilution method
[17] = system: Staphylococcus aureus; experiment: Antibacterial activity against methicillin-resistant Staphylococcus aureus 1103006 clinical isolate after 20 to 24 hrs by two-fold microdilution method
[18] = system: Staphylococcus aureus; experiment: Antibacterial activity against methicillin-resistant Staphylococcus aureus 112047 clinical isolate after 20 to 24 hrs by two-fold microdilution method
[19] = system: Staphylococcus aureus; experiment: Antibacterial activity against methicillin-resistant Staphylococcus aureus 519238 clinical isolate after 20 to 24 hrs by two-fold microdilution method
[20] = system: Staphylococcus aureus; experiment: Antibacterial activity against methicillin-resistant Staphylococcus aureus 1024010 clinical isolate after 20 to 24 hrs by two-fold microdilution method
[21] = system: Staphylococcus aureus; experiment: Antibacterial activity against methicillin-resistant Staphylococcus aureus 614019 clinical isolate after 20 to 24 hrs by two-fold microdilution method
[22] = system: Staphylococcus aureus; experiment: Antibacterial activity against methicillin-resistant Staphylococcus aureus 110328-1 clinical isolate after 20 to 24 hrs by two-fold microdilution method
[23] = system: Staphylococcus aureus; experiment: Antibacterial activity against methicillin-resistant Staphylococcus aureus 316031 clinical isolate after 20 to 24 hrs by two-fold microdilution method
[24] = system: Staphylococcus aureus; experiment: Antibacterial activity against methicillin-resistant Staphylococcus aureus 219236 clinical isolate after 20 to 24 hrs by two-fold microdilution method
[25] = system: Staphylococcus aureus; experiment: Antibacterial activity against methicillin-resistant Staphylococcus aureus 112106 clinical isolate after 20 to 24 hrs by two-fold microdilution method
[26] = system: Staphylococcus aureus; experiment: Antibacterial activity against methicillin-resistant Staphylococcus aureus 30116-1 clinical isolate after 20 to 24 hrs by two-fold microdilution method
[27] = system: Staphylococcus aureus; experiment: Antibacterial activity against methicillin-resistant Staphylococcus aureus 831024 clinical isolate after 20 to 24 hrs by two-fold microdilution method
[28] = system: Staphylococcus aureus; experiment: Antibacterial activity against methicillin-resistant Staphylococcus aureus 120827 clinical isolate after 20 to 24 hrs by two-fold microdilution method
[29] = system: Staphylococcus aureus; experiment: Antibacterial activity against methicillin-resistant Staphylococcus aureus 530231 clinical isolate after 20 to 24 hrs by two-fold microdilution method
[30] = system: Staphylococcus aureus; experiment: Antibacterial activity against methicillin-resistant Staphylococcus aureus 1113041 clinical isolate after 20 to 24 hrs by two-fold microdilution method
[31] = system: Staphylococcus aureus; experiment: Antibacterial activity against […] Staphylococcus aureus ATCC 25923 after 20 to 24 hrs by two-fold microdilution method
[32] = system: Staphylococcus aureus; experiment: Antibacterial activity against methicillin-resistant Staphylococcus aureus 109016 clinical isolate after 20 to 24 hrs by two-fold microdilution method
[33] = system: Streptococcus pyogenes; experiment: Antibacterial activity against Streptococcus pyogenes ATCC 19615 after 20 to 24 hrs by two-fold microdilution method
[34] = system: Staphylococcus aureus; experiment: Antibacterial activity against methicillin-resistant Staphylococcus aureus 1111047-1 clinical isolate after 20 to 24 hrs by two-fold microdilution method
[35] = system: Staphylococcus aureus; experiment: Antibacterial activity against methicillin-resistant Staphylococcus aureus 919205 clinical isolate after 20 to 24 hrs by two-fold microdilution method
[36] = system: Staphylococcus aureus; experiment: Antibacterial activity against methicillin-resistant Staphylococcus aureus 502025 clinical isolate after 20 to 24 hrs by two-fold microdilution method
[37] = system: Staphylococcus aureus; experiment: Antibacterial activity against methicillin-resistant Staphylococcus aureus 724244 clinical isolate after 20 to 24 hrs by two-fold microdilution method
[38] = system: Staphylococcus aureus; experiment: Antibacterial activity against methicillin-resistant Staphylococcus aureus 202045 clinical isolate after 20 to 24 hrs by two-fold microdilution method
[39] = system: Staphylococcus aureus; experiment: Antibacterial activity against methicillin-resistant Staphylococcus aureus GLH15 clinical isolate after 20 to 24 hrs by two-fold microdilution method
[40] = system: Staphylococcus aureus; experiment: Antibacterial activity against methicillin-resistant Staphylococcus aureus clinical isolate after 20 to 24 hrs by two-fold microdilution method
[41] = system: Staphylococcus aureus; experiment: Antibacterial activity against methicillin-resistant Staphylococcus aureus 123152 clinical isolate after 20 to 24 hrs by two-fold microdilution method
[42] = system: Staphylococcus aureus; experiment: Antibacterial activity against methicillin-resistant Staphylococcus aureus 1214023 clinical isolate after 20 to 24 hrs by two-fold microdilution method
[43] = system: Staphylococcus aureus; experiment: Antibacterial activity against methicillin-resistant Staphylococcus aureus 814039 clinical isolate after 20 to 24 hrs by two-fold microdilution method
[44] = system: Staphylococcus aureus; experiment: Antibacterial activity against methicillin-resistant Staphylococcus aureus 912014 clinical isolate after 20 to 24 hrs by two-fold microdilution method
[45] = system: Staphylococcus aureus; experiment: Antibacterial activity against methicillin-resistant Staphylococcus aureus 221022 clinical isolate after 20 to 24 hrs by two-fold microdilution method
[46] = system: Staphylococcus aureus; experiment: Antibacterial activity against methicillin-resistant Staphylococcus aureus 121969 clinical isolate after 20 to 24 hrs by two-fold microdilution method
[47] = system: Staphylococcus aureus; experiment: Antibacterial activity against methicillin-resistant Staphylococcus aureus 1212221 clinical isolate after 20 to 24 hrs by two-fold microdilution method

CN1CCN(CCCCCCOC(=O)c2c3c(n4cc(Br)ccc24)C(=O)c2ncccc2C3=O)CC1
2 µg/mL: MIC [33]
0.016 µg/mL: MIC [13] | MIC [28]
0.063 µg/mL: MIC [5] | MIC [10] | MIC [15] | MIC [24] | MIC [42] | MIC [47]
≤ 0.0078 µg/mL: MIC [4] | MIC [11] | MIC [22] | MIC [27] | MIC [31]
0.5 µg/mL: MIC [7] | MIC [16] | MIC [29] | MIC90 [40] | MIC [43]
0.125 µg/mL: MIC [1] | MIC [6] | MIC [14] | MIC [20] | MIC [21] | MIC [26] | MIC [30] | MIC [35] | MIC [39] | MIC50 [40] | MIC [45] | MIC [46]
0.25 µg/mL: MIC [8] | MIC [9] | MIC [12] | MIC [18] | MIC [19] | MIC [23] | MIC [25] | MIC [36] | MIC [38] | MIC [41]
16 µg/mL: MIC [3]
1 µg/mL: MIC [34]
0.031 µg/mL: MIC [2] | MIC [32] | MIC [37] | MIC [44]
> 16 µg/mL: MIC [17]

O=C1c2cccnc2C(=O)c2c1c(C(=O)OCCCCN1CCOCC1)c1ccc(Br)cn21
0.063 µg/mL: MIC [11] | MIC [24] | MIC [31]
0.25 µg/mL: MIC [9] | MIC [13] | MIC [14] | MIC [15] | MIC [18] | MIC [28] | MIC [38] | MIC [39] | MIC [41] | MIC [43]
> 16 µg/mL: MIC [17]
8 µg/mL: MIC [3]
≤ 0.0078 µg/mL: MIC [22]
4 µg/mL: MIC [7] | MIC [33]
1 µg/mL: MIC [12] | MIC [34] | MIC [35] | MIC90 [40] | MIC [46]
0.031 µg/mL: MIC [42]
0.5 µg/mL: MIC [1] | MIC [2] | MIC [4] | MIC [6] | MIC [8] | MIC [16] | MIC [19] | MIC [20] | MIC [21] | MIC [23] | MIC [25] | MIC [26] | MIC [27] | MIC [29] | MIC [30] | MIC [32] | MIC [36] | MIC50 [40] | MIC [44] | MIC [45]
0.125 µg/mL: MIC [5] | MIC [10] | MIC [37] | MIC [47]
